Measured values taken from US20180193490A1, “Beta Amyloid Staging” (GE HEALTHCARE LIMITED, priority 2015, published 2018).

Molecular target: T1, beta amyloid (Aβ) plaques in the brain (Homo sapiens, UniProt P05067)
T1 construct: from tissue; host or cells: brain of living subjects (cortex and striatum), in vivo PET
Assay: Provisional SUVR analysis of GE067-026 PET images (Cortex ID, cortex and striatal VOIs)
Type: in vivo
Details: for Cases C+S+ by SUVR analysis of cortical and striatal beta amyloid uptake / Cases C+S− by SUVR analysis of cortical and striatal beta amyloid uptake / Cases C−S+ by SUVR analysis of cortical and striatal beta amyloid uptake / Cases C−S− by SUVR analysis of cortical and striatal beta amyloid uptake: SUVRpons thresholds
Method: Some work has been performed to assess the quantitative SUVR measures from the GE067-026 cohort.
In an automated SUVR assessment methodology using GE software Cortex ID (J Lilja) PET images were quantitated using separate cortex and striatal VOIs. The SUVRs were determined for the cortical and striatal values using 3 different reference regions; whole cerebellum, cerebellar grey and pons.
Thresholding was determined by multiple methods to identify which method provided the greatest accuracy (See Setting SUVR thresholds)
The thresholds determined by ROC analysis for Phase 3 or above being abnormal gave the best sensitivity and specificity for cortical assessments. A similar approach gave the best sensitivity and specificity for the striatal assessments. Using the whole cerebellum as a reference region or pons as the reference region gave the best sensitivity and specificity (see Table 4).
Combining these thresholds to determine cortical and striatal positivity based upon SUVRpons values gave similar results to those see by BIE assessment. Of 5 C+S− cases 3 […] were Thal phase 3.
SUVR thresholds were set using two methods. • (1) Statistical determination • (2) Receiver operator characteristics
For statically determined thresholds the algorithm depicted in FIG. 1 was applied. Briefly, all cases were identified as negative or positive based on histopathology. For the cortex this was based on the GE067-026 standard of truth^2—abnormal or normal based on any regional Bielschowsky score>1.5=abnormal and all regional scores≤1.5=normal. For the striatum this was based on the identification of “Frequent” plaques by amyloid-β IHC (4G8). The threshold determinations are calculated in the file Cortex ID SUVR thresholds.xlsx. ^2 For the GE067-007 and -026 autopsy trials the primary endpoint was Bielschowsky silver stain (BSS) scores of CERAD based neuritic plaque density. 0=none, 1=sparse, 2=moderate and 3=frequent. Multiple measures were averaged and the arithmetic mean between none/sparse (normal) and moderate/frequent (abnormal=1.5. Any case with a regional BSS score>1.5 was deemed abnormal.
The SUVR means and standard deviations were calculated for normal and abnormal subjects for each of the SUVR measures; Cortex and striatum and for each of the SUVR reference regions. The threshold was determined to be the SUVR value at which the fractional standard deviation is equal between the two population means i.e. when the normal mean plus y times the normal SD is equal to the abnormal mean minus y times the abnormal SD.
A statistically based threshold was determined for abnormal and normal cases (based on histopathology) and applied to cortical and striatal SUVRs separately.
A variant of the above threshold was determined based upon the Thal phases. Thus the threshold for the cortex and striatum was determined between phase 0 and 1, between phase 1 and phase 2 . . . etc. This gave 15 threshold values (5 to discriminate each phase and 1 for each of the 3 reference regions; 15 in total)
This is an empirically determined threshold that by definition identifies the threshold that gives the best sensitivity and specificity.
Receiver operator characteristics analysis determines the sensitivity and specificity given a variable threshold. The most appropriate threshold is then determined by the maximum of the sum of the sensitivity and specificity.

T1 sequence (P05067 672-713 limits assumed): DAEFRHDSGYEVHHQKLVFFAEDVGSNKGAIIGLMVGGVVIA

CNc1ccc(-c2nc3ccc(O)cc3s2)cc1F [Flutemetamol]
Cases C+S+ by SUVR analysis of cortical and striatal beta amyloid uptake (Amyloid Thal phase 0): 0
Cases C+S− by SUVR analysis of cortical and striatal beta amyloid uptake (Amyloid Thal phase 0): 0
Cases C−S+ by SUVR analysis of cortical and striatal beta amyloid uptake (Amyloid Thal phase 0): 0
Cases C−S− by SUVR analysis of cortical and striatal beta amyloid uptake (Amyloid Thal phase 0): 7
Cases C+S+ by SUVR analysis of cortical and striatal beta amyloid uptake (Amyloid Thal phase 1): 0
Cases C+S− by SUVR analysis of cortical and striatal beta amyloid uptake (Amyloid Thal phase 1): 0
Cases C−S+ by SUVR analysis of cortical and striatal beta amyloid uptake (Amyloid Thal phase 1): 0
Cases C−S− by SUVR analysis of cortical and striatal beta amyloid uptake (Amyloid Thal phase 1): 8
Cases C+S+ by SUVR analysis of cortical and striatal beta amyloid uptake (Amyloid Thal phase 2): 0
Cases C+S− by SUVR analysis of cortical and striatal beta amyloid uptake (Amyloid Thal phase 2): 0
Cases C−S+ by SUVR analysis of cortical and striatal beta amyloid uptake (Amyloid Thal phase 2): 0
Cases C−S− by SUVR analysis of cortical and striatal beta amyloid uptake (Amyloid Thal phase 2): 5
Cases C+S+ by SUVR analysis of cortical and striatal beta amyloid uptake (Amyloid Thal phase 3): 1
Cases C+S− by SUVR analysis of cortical and striatal beta amyloid uptake (Amyloid Thal phase 3): 3
Cases C−S+ by SUVR analysis of cortical and striatal beta amyloid uptake (Amyloid Thal phase 3): 0
Cases C−S− by SUVR analysis of cortical and striatal beta amyloid uptake (Amyloid Thal phase 3): 8
Cases C+S+ by SUVR analysis of cortical and striatal beta amyloid uptake (Amyloid Thal phase 4): 16
Cases C+S− by SUVR analysis of cortical and striatal beta amyloid uptake (Amyloid Thal phase 4): 1
Cases C−S+ by SUVR analysis of cortical and striatal beta amyloid uptake (Amyloid Thal phase 4): 2
Cases C−S− by SUVR analysis of cortical and striatal beta amyloid uptake (Amyloid Thal phase 4): 3
Cases C+S+ by SUVR analysis of cortical and striatal beta amyloid uptake (Amyloid Thal phase 5): 44
Cases C+S− by SUVR analysis of cortical and striatal beta amyloid uptake (Amyloid Thal phase 5): 1
Cases C−S+ by SUVR analysis of cortical and striatal beta amyloid uptake (Amyloid Thal phase 5): 0
Cases C−S− by SUVR analysis of cortical and striatal beta amyloid uptake (Amyloid Thal phase 5): 1
Sum of sensitivity and specificity (Average over all thresholds, reference region Cer): 163%
Sum of sensitivity and specificity (Average over all thresholds, reference region Pons): 168%
Sum of sensitivity and specificity (Average over all thresholds, reference region Wcer): 168%
Phase 3 cases identified as C+S− between the two methods (BIE and SUVR) (BIE and SUVR combined): 6
Sum of sensitivity and specificity (CTX BSS ROC abnormality threshold, Average of reference regions): 177%
Sum of sensitivity and specificity (CTX BSS ROC abnormality threshold, reference region Cer): 176%
Sum of sensitivity and specificity (CTX BSS ROC abnormality threshold, reference region Pons): 174%
Sum of sensitivity and specificity (CTX BSS ROC abnormality threshold, reference region Wcer): 180%
Sum of sensitivity and specificity (CTX Max Mirra ROC abnormality threshold, Average of reference regions): 170%
Sum of sensitivity and specificity (CTX Max Mirra ROC abnormality threshold, reference region Cer): 170%
Sum of sensitivity and specificity (CTX Max Mirra ROC abnormality threshold, reference region Pons): 167%
Sum of sensitivity and specificity (CTX Max Mirra ROC abnormality threshold, reference region Wcer): 173%
Sum of sensitivity and specificity (CTX Mirra mode ROC abnormality threshold, Average of reference regions): 172%
Sum of sensitivity and specificity (CTX Mirra mode ROC abnormality threshold, reference region Cer): 170%
Sum of sensitivity and specificity (CTX Mirra mode ROC abnormality threshold, reference region Pons): 173%
Sum of sensitivity and specificity (CTX Mirra mode ROC abnormality threshold, reference region Wcer): 174%
Sum of sensitivity and specificity (CTX Phase1 threshold, Average of reference regions): 139%
Sum of sensitivity and specificity (CTX Phase1 threshold, reference region Cer): 142%
Sum of sensitivity and specificity (CTX Phase1 threshold, reference region Pons): 129%
Sum of sensitivity and specificity (CTX Phase1 threshold, reference region Wcer): 145%
Sum of sensitivity and specificity (CTX Phase2 threshold, Average of reference regions): 155%
Sum of sensitivity and specificity (CTX Phase2 threshold, reference region Cer): 153%
Sum of sensitivity and specificity (CTX Phase2 threshold, reference region Pons): 158%
Sum of sensitivity and specificity (CTX Phase2 threshold, reference region Wcer): 152%
Sum of sensitivity and specificity (CTX Phase 3 + ROC abnormality threshold, Average of reference regions): 183%
Sum of sensitivity and specificity (CTX Phase 3 + ROC abnormality threshold, reference region Cer): 180%
Sum of sensitivity and specificity (CTX Phase 3 + ROC abnormality threshold, reference region Pons): 186%
Sum of sensitivity and specificity (CTX Phase 3 + ROC abnormality threshold, reference region Wcer): 182%
Sum of sensitivity and specificity (CTX Phase3 threshold, Average of reference regions): 161%
Sum of sensitivity and specificity (CTX Phase3 threshold, reference region Cer): 153%
Sum of sensitivity and specificity (CTX Phase3 threshold, reference region Pons): 166%
Sum of sensitivity and specificity (CTX Phase3 threshold, reference region Wcer): 166%
Sum of sensitivity and specificity (CTX Phase 4 + ROC abnormality threshold, Average of reference regions): 179%
Sum of sensitivity and specificity (CTX Phase 4 + ROC abnormality threshold, reference region Cer): 176%
Sum of sensitivity and specificity (CTX Phase 4 + ROC abnormality threshold, reference region Pons): 182%
Sum of sensitivity and specificity (CTX Phase 4 + ROC abnormality threshold, reference region Wcer): 180%
Sum of sensitivity and specificity (CTX Phase4 threshold, Average of reference regions): 177%
Sum of sensitivity and specificity (CTX Phase4 threshold, reference region Cer): 173%
Sum of sensitivity and specificity (CTX Phase4 threshold, reference region Pons): 179%
Sum of sensitivity and specificity (CTX Phase4 threshold, reference region Wcer): 179%
Sum of sensitivity and specificity (CTX Phase5 threshold, Average of reference regions): 136%
Sum of sensitivity and specificity (CTX Phase5 threshold, reference region Cer): 132%
Sum of sensitivity and specificity (CTX Phase5 threshold, reference region Pons): 142%
Sum of sensitivity and specificity (CTX Phase5 threshold, reference region Wcer): 133%
Sum of sensitivity and specificity (CTX abnormality statistical threshold, Average of reference regions): 176%
Sum of sensitivity and specificity (CTX abnormality statistical threshold, reference region Cer): 174%
Sum of sensitivity and specificity (CTX abnormality statistical threshold, reference region Pons): 175%
Sum of sensitivity and specificity (CTX abnormality statistical threshold, reference region Wcer): 180%
Sum of sensitivity and specificity (STR Phase1 threshold, Average of reference regions): 144%
Sum of sensitivity and specificity (STR Phase1 threshold, reference region Cer): 135%
Sum of sensitivity and specificity (STR Phase1 threshold, reference region Pons): 147%
Sum of sensitivity and specificity (STR Phase1 threshold, reference region Wcer): 150%
Sum of sensitivity and specificity (STR Phase2 threshold, Average of reference regions): 138%
Sum of sensitivity and specificity (STR Phase2 threshold, reference region Cer): 135%
Sum of sensitivity and specificity (STR Phase2 threshold, reference region Pons): 135%
Sum of sensitivity and specificity (STR Phase2 threshold, reference region Wcer): 144%
Sum of sensitivity and specificity (STR Phase3 threshold, Average of reference regions): 173%
Sum of sensitivity and specificity (STR Phase3 threshold, reference region Cer): 164%
Sum of sensitivity and specificity (STR Phase3 threshold, reference region Pons): 178%
Sum of sensitivity and specificity (STR Phase3 threshold, reference region Wcer): 179%
Sum of sensitivity and specificity (STR Phase4 threshold, Average of reference regions): 183%
Sum of sensitivity and specificity (STR Phase4 threshold, reference region Cer): 180%
Sum of sensitivity and specificity (STR Phase4 threshold, reference region Pons): 186%
Sum of sensitivity and specificity (STR Phase4 threshold, reference region Wcer): 183%
Sum of sensitivity and specificity (STR Phase5 threshold, Average of reference regions): 158%
Sum of sensitivity and specificity (STR Phase5 threshold, reference region Cer): 151%
Sum of sensitivity and specificity (STR Phase5 threshold, reference region Pons): 165%
Sum of sensitivity and specificity (STR Phase5 threshold, reference region Wcer): 157%
Sum of sensitivity and specificity (STR ROC abnormality threshold, Average of reference regions): 187%
Sum of sensitivity and specificity (STR ROC abnormality threshold, reference region Cer): 185%
Sum of sensitivity and specificity (STR ROC abnormality threshold, reference region Pons): 188%
Sum of sensitivity and specificity (STR ROC abnormality threshold, reference region Wcer): 187%
Sum of sensitivity and specificity (STR abnormality statistical threshold, Average of reference regions): 184%
Sum of sensitivity and specificity (STR abnormality statistical threshold, reference region Cer): 182%
Sum of sensitivity and specificity (STR abnormality statistical threshold, reference region Pons): 187%
Sum of sensitivity and specificity (STR abnormality statistical threshold, reference region Wcer): 185%
Share of C+S− cases that were Thal phase 3 (SUVRpons values): 66%
C+S− cases by SUVR thresholds (SUVRpons values, all Thal phases): 5
Thal phase 3 C+S− cases by SUVR analysis in common with those identified by BIE assessment (of the 3 Thal phase 3 C+S− cases by SUVR): two
